In article PMC6829886, “Inhibition of Non-Small Cell Lung Cancer Cells by Oxy210, an Oxysterol-Derivative that Antagonizes TGFβ and Hedgehog Signaling” (Cells, 2019):
Values joined by “and” are separate entries in the source; they are usually repeats but may differ in a detail not shown here. Equal values may be shown once.

What was measured:
[1] = system: GLI1, GLI2 mRNA in H2030 NSCLC cells; assay: GLI mRNA expression in H2030 cells (Q-RT-PCR); assay type: cell-based, human; conditions: 5 μM, 72 h
Protocol: Total RNA was extracted with the RNeasy Plus Mini Kit from Qiagen (Hilden, Germany) according to the manufacturer’s instructions. One microgram of RNA was reverse-transcribed using an iScript Reverse Transcription Supermix from Bio-Rad Laboratories (Hercules, CA, USA) to make single-stranded cDNA. The cDNAs were then mixed with Qi SYBR Green Supermix (Bio-Rad) for quantitative RT-PCR assay using a Bio-Rad I-cycler IQ quantitative thermocycler. All PCR samples were prepared in triplicate wells in a 96-well plate. After 40 cycles of PCR, melt curves were examined in order to ensure primer specificity. Fold changes in gene expression were calculated using the ΔΔCt method. […]
Figure 6 Inhibition of Glis and SHH expression in Non-Small Cell Lung Cancer (NSCLC) cells. A549 (a) and H2030 (b) cells were treated with Oxy210 in RPMI 1640 containing 5% FBS for 72 h, then RNA was extracted and analyzed by Q-RT-PCR for the expression of the indicated genes and normalized to GAPDH expression. […] After 48 h, RNA was extracted and analyzed by Q-RT-PCR for the expression of Gli1 and Shh and normalized to GAPDH expression. […]

TβRI = assay: Smad responsive luciferase reporter (CAGA12-Luc) in R1BL17 cells transfected with TGFβRI (WT or TD mutant); assay type: cell-based, mink; conditions: 20 h
[2] = Single oral dose pharmacokinetic study in mice; assay type: in vivo; conditions: mouse, plasma, oral gavage, single dose 50 mg/kg
Protocol: In an initial assessment of drug-like properties of Oxy210, we performed a pharmacokinetic (PK) study in mice. Oxy210, formulated in 3% DMSO + 7% Ethanol + 5% PEG400 + 85% corn oil, was administered to balb/c mice by oral gavage as a single dose of 50 mg/kg. Plasma samples were taken at 10 min, 30 min, 1 h, 2 h, 4 h, and 8h, followed by LC/MS analysis. […] Additional PK studies in mice were performed with Oxy210 in a dose escalation study with repeated once daily oral dosing (50 mg/kg, 200 mg/kg and 400 mg/kg) for 7 days.
Figure 13 Drug-like properties of Oxy210. (a) A single dose of Oxy210 at 50 mg/kg, formulated in 3% DMSO + 7% Ethanol + 5% PEG400 + 85% corn oil, was administered to balb/c mice by oral gavage. Plasma samples were taken at 10 min, 30 min, 1h, 2h, 4h, 6h, and 8h, followed by LC/MS analysis of the plasma. (b) Evolution of Oxy210 and Oxy186 from parent compound Oxy16 and their drug-like properties.

Liver X Receptor (LXR) = assay type: cell-based, human

Question: What does the source list for C[C@]12CC[C@H]3[C@@H](CC=C4C[C@@H](O)CC[C@@]43C)[C@@H]1CC[C@@H]2[C@](C)(O)CCc1cccnc1 [Oxy210, (3S,8S,9S,10R,13S,14S,17S)-17-((R)-2-hydroxy-4-(pyridin-3-yl)butan-2-yl)-10,13-dimethyl-2,3,4,7,8,9,10,11,12,13,14,15,16,17-tetradecahydro-1H-cyclopenta[a]phenanthren-3-ol]?
Answer: mRNA expression of GLI1 and GLI2 [1]: significantly inhibited; activity of Smad responsive reporter stimulated by TGFβ-activated RI or ligand independent RI_TD (TβRI): significantly inhibited; MRT ([2]; balb/c, po, 50 mg/kg, read-out: mean residence time (MRT)): 8 h; AUC(0-inf) ([2]; balb/c mice): 9210 ng·h/mL; Tmax ([2]; balb/c mice): 0.5 h; Cmax ([2]; balb/c mice): 1970 ng/mL and 4.7 µM; induced expression of SREB1c (Liver X Receptor (LXR)): lack of induced expression
